# Experiments:
# Type in all cases: cell-based
# [1] = system: K. pneumoniae strain MP-548; experiment: Broth dilution MIC determination (CLSI) against K. pneumoniae strain MP-548; details: Klebsiella pneumoniae, MP548
# Procedure, shortened: (§1)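 CLSI broth microdilution, macrolide test compounds; MIC reported as category: ≤4 mg/L = +++, 8–<32 mg/L = ++, ≥32 mg/L = +.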
# S. aureus strain MP-12 = experiment: Broth dilution MIC determination (CLSI) against S. aureus strain MP-12; details: Staphylococcus aureus, MP12, strain MP-12
# Procedure, shortened: as §1
# E. coli strain MP-4 = experiment: Broth dilution MIC determination (CLSI) against E. coli strain MP-4; details: Escherichia coli, MP4
# Procedure, shortened: as §1
# [2] = system: A. baumannii strain MP-15; experiment: Broth dilution MIC determination (CLSI) against A. baumannii strain MP-15; details: Acinetobacter baumannii, MP15
# Procedure, shortened: as §1
# [3] = system: P. aeruginosa strain MP-3; experiment: Broth dilution MIC determination (CLSI) against P. aeruginosa strain MP-3; details: Pseudomonas aeruginosa, MP3
# Procedure, shortened: as §1
MIC [1],MIC (S. aureus strain MP-12),MIC (E. coli strain MP-4),MIC [2],MIC [3],SMILES
≤ 4 µg/mL,≥ 32 µg/mL,≤ 4 µg/mL,≥ 32 µg/mL,≥ 32 µg/mL,"CC[C@H]1OC(=O)C(C)C(=O)[C@H](C)[C@@H](O[C@@H]2O[C@H](CNC3CCC3)CC(N(C)C)[C@H]2O)[C@](C)(OC)C[C@@H](C)CN(C)[C@H](C)[C@H]2NC(=O)O[C@@]21C (some centres unmarked) [Compound 163, 3-Descladinosyl-3-oxo-6-O-methyl-11,12-dideoxy-12,11-(oxycarbonylimino)-6′-cyclobutylamino Azithromycin]"
≥ 32 µg/mL,≤ 4 µg/mL,≥ 32 µg/mL,8 to 32 µg/mL,≥ 32 µg/mL,CC[C@H]1OC(=O)[C@@](C)(F)C(=O)[C@H](C)[C@@H](O[C@@H]2OC(COC/C=C/c3cnc4ccccc4c3)CC(N(C)C)C2O)[C@](C)(OC)C[C@@H](C)C(=O)[C@H](C)[C@H]2NC(=O)O[C@@]21C (some centres unmarked) [Compound 104]
≥ 32 µg/mL,≤ 4 µg/mL,≥ 32 µg/mL,≥ 32 µg/mL,≥ 32 µg/mL,CC[C@H]1OC(=O)[C@@](C)(F)C(=O)[C@H](C)[C@@H](O[C@@H]2OC(CNCc3cccc(-c4cncnc4)c3)CC(N(C)C)C2O)[C@](C)(OC)C[C@@H](C)C(=O)[C@H](C)[C@H]2NC(=O)O[C@@]21C (some centres unmarked) [Compound 93]
≤ 4 µg/mL,8 to 32 µg/mL,≤ 4 µg/mL,8 to 32 µg/mL,≥ 32 µg/mL,"CC[C@H]1OC(=O)C(C)C(=O)[C@H](C)[C@@H](O[C@@H]2O[C@H](CNC3CC3)CC(N(C)C)[C@H]2O)[C@](C)(OC)C[C@@H](C)CN(C)[C@H](C)[C@H]2NC(=O)O[C@@]21C (some centres unmarked) [Compound 161, 3-Descladinosyl-3-oxo-6-O-methyl-11,12-dideoxy-12,11-(oxycarbonylimino)-6′-cyclopropylamino Azithromycin]"
≥ 32 µg/mL,≤ 4 µg/mL,8 to 32 µg/mL,≥ 32 µg/mL,≥ 32 µg/mL,CC[C@H]1OC(=O)[C@@](C)(F)C(=O)[C@H](C)[C@@H](O[C@@H]2OC(CNCc3ccccn3)CC(N(C)C)C2O)[C@](C)(OC)C[C@@H](C)C(=O)[C@H](C)[C@H]2NC(=O)O[C@@]21C (some centres unmarked) [Compound 100]
≥ 32 µg/mL,≥ 32 µg/mL,8 to 32 µg/mL,≥ 32 µg/mL,≥ 32 µg/mL,CC[C@H]1OC(=O)C(C)C(=O)[C@H](C)[C@@H](O[C@@H]2OC(CNc3ccc(C#N)cc3)CC(N(C)C)C2O)[C@](C)(OC)C[C@@H](C)CN[C@H](C)[C@H]2NC(=O)O[C@@]21C (some centres unmarked) [Compound 50]
≥ 32 µg/mL,≥ 32 µg/mL,≤ 4 µg/mL,≥ 32 µg/mL,≥ 32 µg/mL,CC[C@H]1OC(=O)C(C)C(=O)[C@H](C)[C@@H](O[C@@H]2OC(CNCc3ccccc3F)CC(N(C)C)C2O)[C@](C)(OC)C[C@@H](C)CN[C@H](C)[C@H]2NC(=O)O[C@@]21C (some centres unmarked) [Compound 29]

SMILES,MIC [1],MIC (S. aureus strain MP-12),MIC (E. coli strain MP-4),MIC [2],MIC [3]
CC[C@H]1OC(=O)[C@@]2(C)CCOC(C)(C[C@@H](C)CN(C)[C@H](C)[C@H]3NC(=O)O[C@@]31C)[C@H](O[C@@H]1O[C@H](CN(C)C3CC3)C[C@H](N(C)C)[C@H]1O)[C@@H](C)C2=O [Compound 209],≤ 4 µg/mL,≤ 4 µg/mL,≤ 4 µg/mL,8 to 32 µg/mL,≥ 32 µg/mL
CC[C@H]1OC(=O)[C@@]2(C)CCOC(C)(C[C@@H](C)CN(C3CC3)[C@H](C)[C@H]3NC(=O)O[C@@]31C)[C@H](O[C@@H]1OC(C)CC(N(C)C)C1O)[C@@H](C)C2=O (some centres unmarked) [Compound 210],≥ 32 µg/mL,≤ 4 µg/mL,8 to 32 µg/mL,≥ 32 µg/mL,≥ 32 µg/mL
CC[C@H]1OC(=O)[C@]2(C)CCO[C@](C)(C[C@@H](C)CN[C@H](C)[C@H]3NC(=O)O[C@@]31C)[C@H](O[C@@H]1O[C@H](CNCc3cccnc3)C[C@H](N(C)C)[C@H]1O)[C@@H](C)C2=O [Compound 200],≥ 32 µg/mL,8 to 32 µg/mL,8 to 32 µg/mL,≥ 32 µg/mL,≥ 32 µg/mL

# From patent US11673910B2, “Macrolides with modified desosamine sugars and uses thereof” (Zikani Therapeutics, Inc., priority 2017, dated 2023)
